# What was measured:
# [1] = in vitro dissolution (acid/base dissolution bath, USP apparatus, HPLC); format: physicochemical
# Description: The amount of active dissolution over time, e.g., guaifenesin and/or phenylephrine in the tablets or capsules disclosed herein below may be tested as follows. Briefly, in vitro guaifenesin or phenylephrine release may be determined using an acid/base dissolution bath, e.g., a standard USP 23/NF Drug Release Apparatus. Dissolution vessels of a USP calibrated dissolution bath, equipped with shafts and paddles, are filled with 675 ml of 0.1N hydrochloric acid at 37.0 degrees Centigrade. The bath and vessels are maintained at a temperature of 37.0±0.5 degrees Centigrade throughout a standard 7 hour dissolution test. […] One tablet or capsule is dropped into each vessel.
# At the testing intervals, e.g., 1 minute, 10, 10, 30, 45, 60 or 90 minutes, 2, 3, 4, 6, 7, 9 or 12 hour testing intervals, an aliquot, e.g., 5 mls of dissolution solution is withdrawn from each vessel, filtered (e.g., through a 10-22 micron polyethylene filter) and tested using an HPLC. To stop the dissolution a strong base may be added to the sample, e.g., 0.2M sodium phosphate tribasic to increase the pH of the solution to about 6.8. The percent dissolution is determined using HPLC.
# [2] = accelerated stability of capsules (dissolution and assay over time); format: physicochemical
# Description: The material was placed on accelerated stability.
# Stability: Capsules were studied for stability.
# [3] = water and alcohol; cited from earlier work
SMILES,release profile for gauifenesin ([1]; sustain releasing both actives),potency on accelerated stability [2],released immediately ([2]; capsules on accelerated stability) [%],solubility [3],release of phenylephrine ([1]; phenylephrine overcoated with immediate release gauifenesin),dissolution rate of phenylephrine ([1]; when combined with Gauifenesin DC),"release profile ([2]; capsules on accelerated stability, month to month)"
"COc1ccccc1OCC(O)CO (stereo not shown) [Guaifenesin, 3(2-methoxyphenoxy)-1,2-propanediol]",poor release profile,stable potency,100,soluble in water and alcohol,,,
"CNC[C@@H](O)c1cccc(O)c1.Cl [Phenylephrine hydrochloride, (S)-3-hydroxy-α[(methylamino)methyl]benzenemethanol hydrochloride]",,,,,slowed the release of the phenylephrine to an unacceptable level,accelerated,first order release profile consistent with an 8 hour product

# Source: patent US20050152967A1, “Dynamic variable release” (PFab, LP, priority 2003, published 2005)
